The subject of assay [1] is Carrageenan Induced Thermal Hyperalgesia in the Rat. The assay can be described thus: Carrageenan-induced thermal hyperalgesia in the rat (plantar test, paw withdrawal latency). The format is in vivo. The settings on record: MPE = maximum possible effect, baseline before carrageenan. The method, then: Male Sprague-Dawley rats (180-250 g) were obtained from Bantin and Kingman, (Hull, U.K.). Animals were housed in groups of 6 to 10 under a 12 hour light/dark cycle (lights on at 7 hours, 0 minutes) with food and water ad libitum.
Carrageenan-induced Thermal Hyperalgesia in the Rat
Thermal hyperalgesia was assessed using the rat plantar test (Ugo Basile, Italy) following a modified method of Hargreaves, et al., 1988. Rats were habituated to the apparatus which consisted of three individual perspex boxes on an elevated glass table. A mobile radiant heat source located under the table was focused onto the desired paw and paw withdrawal latencies (PWL) recorded. PWL were taken 3 times for both hind paws of each animal, the mean of which represented baselines for right and left hind paws. At least 5 minutes were allowed between each PWL for an animal. The apparatus was calibrated to give a PWL of approximately 10 s. There was an automatic cutoff point of 20 s to prevent tissue damage. After baseline PWLs were determined, animals received an intraplantar injection of carrageenan (100 μL of 20 mg/mL) into the right hind paw. PWLs were reassessed following the same protocol as above 2-hour post-carrageenan (this time point represented the start of peak hyperalgesia) to ascertain that hyperalgesia had developed. Test compounds were administered orally (in a volume of 1 mL/kg) at 2.5 hours after carrageenan. PWLs were reassessed at various times after drug administration.

Assay [2] deals with sound-induced tonic seizures in DBA/2 mice. Description: DBA2 test: prevention of audiogenic seizures in DBA/2 mice. Type of assay: in vivo. The settings on record: DBA/2 mouse. Here is the method:
A Model of Anticonvulsant Efficacy and Protocol for DBA2 Test: Prevention of Audiogenic Seizures in DBA/2 Mice
All procedures were carried out in compliance with the NI/H Guide for the Care and Use of Laboratory Animals under a protocol approved by the Parke-Davis Animal Use Committee. Male DBA/2 mice, 3 to 4 weeks old, were obtained from Jackson Laboratories, Bar Harbour, Me. Immediately before anticonvulsant testing, mice were placed upon a wire mesh, 4 inches square suspended from a steel rod. The square was slowly inverted through 180 degrees and mice observed for 30 seconds. Any mouse falling from the wire mesh was scored as ataxic.
Mice were placed into an enclosed acrylic plastic chamber (21 cm height, approximately 30 cm diameter) with a high-frequency speaker (4 cm diameter) in the center of the top lid. An audio signal generator (Protek model B-810) was used to produce a continuous sinusoidal tone that was swept linearly in frequency between 8 kHz and 16 kHz once each 10 msec. The average sound pressure level (SPL) during stimulation was approximately 100 dB at the floor of the chamber. Mice were placed within the chamber and allowed to acclimatize for 1 minute. DBA/2 mice in the vehicle-treated group responded to the sound stimulus (applied until tonic extension occurred, or for a maximum of 60 seconds) with a characteristic seizure sequence consisting of wild running followed by clonic seizures, and later by tonic extension, and finally by respiratory arrest and death in 80% or more of the mice. In vehicle-treated mice, the entire sequence of seizures to respiratory arrest lasts approximately 15 to 20 seconds.
The incidence of all the seizure phases in the drug-treated and vehicle-treated mice was recorded, and the occurrence of tonic seizures were used for calculating anticonvulsant ED50 values by probit analysis. Mice were used only once for testing at each dose point. […] All drugs in the present study were dissolved in distilled water and given by oral gavage in a volume of 10 mL/kg of body weight. compounds that are insoluble will be suspended in 1% carboxymethocellulose. Doses are expressed as weight of the active drug moiety.

The target of a further assay is T1, α2δ subunit (Sus scrofa, UniProt A0A287BIN3).
T1 construct: the α2δ subunit derived from porcine brain tissue was used; from tissue; host or cells: porcine brain tissue
T1 sequence (A0A287BIN3 25-1109): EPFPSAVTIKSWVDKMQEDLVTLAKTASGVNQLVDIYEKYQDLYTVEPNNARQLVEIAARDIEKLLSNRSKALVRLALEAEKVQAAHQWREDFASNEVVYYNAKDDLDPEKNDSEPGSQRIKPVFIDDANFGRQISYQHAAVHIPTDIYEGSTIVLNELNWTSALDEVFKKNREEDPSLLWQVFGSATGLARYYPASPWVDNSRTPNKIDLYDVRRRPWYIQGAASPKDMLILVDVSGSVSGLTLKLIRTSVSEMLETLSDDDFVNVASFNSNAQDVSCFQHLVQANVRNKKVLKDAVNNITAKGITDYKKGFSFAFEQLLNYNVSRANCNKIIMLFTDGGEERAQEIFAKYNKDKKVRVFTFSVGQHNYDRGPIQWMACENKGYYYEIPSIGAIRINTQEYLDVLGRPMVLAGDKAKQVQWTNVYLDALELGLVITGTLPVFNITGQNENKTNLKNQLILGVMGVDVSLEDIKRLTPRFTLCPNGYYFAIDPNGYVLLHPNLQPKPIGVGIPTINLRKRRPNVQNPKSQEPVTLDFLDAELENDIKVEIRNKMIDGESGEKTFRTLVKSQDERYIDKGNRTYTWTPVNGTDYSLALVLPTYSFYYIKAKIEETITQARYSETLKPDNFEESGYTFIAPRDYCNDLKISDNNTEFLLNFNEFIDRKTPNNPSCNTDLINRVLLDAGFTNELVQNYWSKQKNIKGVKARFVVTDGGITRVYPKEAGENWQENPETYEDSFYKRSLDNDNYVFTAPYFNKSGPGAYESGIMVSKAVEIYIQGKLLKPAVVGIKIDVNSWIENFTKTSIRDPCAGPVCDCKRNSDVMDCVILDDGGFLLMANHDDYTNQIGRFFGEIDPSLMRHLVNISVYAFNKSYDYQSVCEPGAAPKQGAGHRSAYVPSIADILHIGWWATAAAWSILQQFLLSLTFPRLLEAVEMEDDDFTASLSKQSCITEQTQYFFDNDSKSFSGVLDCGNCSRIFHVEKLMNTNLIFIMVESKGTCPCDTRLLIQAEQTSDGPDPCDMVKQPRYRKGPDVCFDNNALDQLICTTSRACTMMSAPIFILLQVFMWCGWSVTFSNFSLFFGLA
Description: radioligand binding assay using [3H]gabapentin and the α2δ subunit. Also on record: species or system porcine.

As a reminder, the IC50 is the concentration that gives 50% inhibition.

Each structure is given as a SMILES string. Counter-ions that a name gives are not always drawn. Like-named read-outs stand apart in the source and are kept apart here. Some results are limits rather than exact numbers.

Consider `C[C@@H]1CC(CN)(CC(=O)O)C[C@H]1C.Cl` (racemic) [(±)-(trans)-(1-Aminomethyl-3,4-dimethyl-cyclopentyl)-acetic acid hydrochloride], for which, in assay [1], the “% MPE 1 hr postdose @ 30 mg/kg PO” value came to 23 % MPE and the “% MPE 2 hr postdose @ 30 mg/kg PO” value came out at 72 % MPE. The “% Protected 1 hr postdose 30 mg/kg PO” value in assay [2] is given as 100%. In addition, the IC50 on α2δ subunit worked out at 0.034 µM.

Regarding `C[C@@H]1C[C@](CN)(CC(=O)O)C[C@@H]1C` [(1α,3β,4β)-(1-Aminomethyl-3,4-dimethyl-cyclopentyl)-acetic acid hydrochloride], in assay [1], the “% MPE 1 hr postdose @ 30 mg/kg PO” value is −7 % MPE and the “% MPE 2 hr postdose @ 30 mg/kg PO” value is −2 % MPE. Moreover, the “% Protected 1 hr postdose 30 mg/kg PO” value in assay [2] stood at 100%. For the same compound, the IC50 at α2δ subunit (read-out: IC50 (μM) at α2δ binding site) worked out at 0.154 µM.

With `NCC1(CC(=O)O)CC(Cc2ccccc2)C1` (mixture of isomers) [(cis/trans)-(1-Aminomethyl-3-benzyl-cyclobutyl)-acetic acid hydrochloride], in assay [1], the “% MPE 1 hr postdose @ 30 mg/kg PO” value amounted to 0 % MPE and the “% MPE 2 hr postdose @ 30 mg/kg PO” value came to 0 % MPE. For the same compound, the IC50 at α2δ subunit is > 10 µM.

On to `Cl.NCC1(CC(=O)O)CCC1` [(1-Aminomethyl-cyclobutyl)-acetic acid hydrochloride], for which, in assay [1], the “% MPE 1 hr postdose @ 30 mg/kg PO” value is 4 % MPE and the “% MPE 2 hr postdose @ 30 mg/kg PO” value was determined as 4 % MPE. In addition, the “% Protected (2 hour postdose) 30 mg/kg PO” value in assay [2] (2 hour postdose) is reported as 20 (2 hour postdose) %. At α2δ subunit, this compound had an IC50 of 0.598 µM.

Turning to `C[C@H]1CC(CN)(CC(=O)O)C[C@@H]1C.Cl` [(3S,4S)-(1-Aminomethyl-3,4-dimethyl-cyclopentyl)-acetic acid hydrochloride], in assay [1], the “% MPE 1 hr postdose @ 30 mg/kg PO” value is on record as 109 % MPE and the “% MPE 2 hr postdose @ 30 mg/kg PO” value is 118 % MPE. The “% Protected 1 hr postdose 30 mg/kg PO” value in assay [2] turned out to be 100%. The IC50 on α2δ subunit came to 0.022 µM.

As for `C[C@@H]1CCC(CN)(CC(=O)O)C1` (mixture of isomers) [(cis/trans)-(3R)-(1-Aminomethyl-3-methyl-cyclopentyl)-acetic acid hydrochloride], in assay [1], the “% MPE 1 hr postdose @ 30 mg/kg PO” value is given as 67 % MPE and the “% MPE 2 hr postdose @ 30 mg/kg PO” value is given as 53 % MPE. Also, the “% Protected 1 hr postdose 30 mg/kg PO” value in assay [2] came out at 100%. Also, the IC50 at α2δ subunit was determined as 0.088 µM.

Take `C[C@@H]1CC(CN)(CC(=O)O)C[C@H]1C` [(3R,4R)-(1-Aminomethyl-3,4-dimethyl-cyclopentyl)-acetic acid hydrochloride]: the IC50 at α2δ subunit worked out at 1 µM.
